In PubChem BioAssay (NCI):
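The concentration for 50% growth inhibition is given as GI50. The concentration for full growth arrest is given as TGI.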

Assays:
Test in all cases: NCI tumour cell line growth inhibition, 384-well format
A498 renal = test system: A498 renal
OVCAR-3 ovarian = test system: OVCAR-3 ovarian
T-47D breast = test system: T-47D breast
UACC-257 melanoma = test system: UACC-257 melanoma
SNB-75 CNS = test system: SNB-75 CNS
HT29 colon = test system: HT29 colon
OVCAR-8 ovarian = test system: OVCAR-8 ovarian
HL-60(TB) leukemia = test system: HL-60(TB) leukemia
SF-295 CNS = test system: SF-295 CNS
UO-31 renal = test system: UO-31 renal
NCI-H522 lung = test system: NCI-H522 lung
SF-539 CNS = test system: SF-539 CNS
SK-MEL-2 melanoma = test system: SK-MEL-2 melanoma
HCT-116 colon = test system: HCT-116 colon
RPMI-8226 leukemia = test system: RPMI-8226 leukemia
NCI-H23 lung = test system: NCI-H23 lung
HS 578T breast = test system: HS 578T breast
RXF 393 renal = test system: RXF 393 renal
MDA-MB-468 breast = test system: MDA-MB-468 breast
SF-268 CNS = test system: SF-268 CNS
IGROV1 ovarian = test system: IGROV1 ovarian
BT-549 breast = test system: BT-549 breast
CAKI-1 renal = test system: CAKI-1 renal
EKVX NSCLC = test system: EKVX NSCLC
KM12 colon = test system: KM12 colon
M14 melanoma = test system: M14 melanoma
NCI-H226 lung = test system: NCI-H226 lung
SK-OV-3 ovarian = test system: SK-OV-3 ovarian

COc1cc([C@@H]2c3cc4c(cc3[C@@H](OC3OC5CO[C@@H](c6cccs6)OC5C(O)C3O)[C@H]3COC(=O)[C@H]23)OCO4)cc(OC)c1O (stereo partly drawn)
TGI (A498 renal): 3510 nM | GI50 (OVCAR-3 ovarian): 348 nM | TGI (OVCAR-3 ovarian): 2070 nM | GI50 (T-47D breast): 146 nM | TGI (T-47D breast): 27300 nM | GI50 (UACC-257 melanoma): 2850 nM | TGI (UACC-257 melanoma): 13100 nM | GI50 (SNB-75 CNS): 327 nM | TGI (SNB-75 CNS): 1780 nM | GI50 (HT29 colon): 236 nM | TGI (HT29 colon): 1230 nM | GI50 (OVCAR-8 ovarian): 151 nM | TGI (OVCAR-8 ovarian): 1470 nM | TGI (HL-60(TB) leukemia): 11.6 nM | GI50 (SF-295 CNS): 103 nM | TGI (SF-295 CNS): 490 nM | GI50 (UO-31 renal): 4000 nM | TGI (UO-31 renal): 17500 nM | GI50 (NCI-H522 lung): 198 nM | TGI (NCI-H522 lung): 1530 nM | GI50 (SF-539 CNS): 95.9 nM | TGI (SF-539 CNS): 560 nM | GI50 (SK-MEL-2 melanoma): 567 nM | TGI (SK-MEL-2 melanoma): 890 nM | GI50 (HCT-116 colon): 67.8 nM | TGI (HCT-116 colon): 2020 nM | TGI (RPMI-8226 leukemia): 161 nM | GI50 (NCI-H23 lung): 77.1 nM | TGI (NCI-H23 lung): 664 nM | GI50 (HS 578T breast): 62.4 nM | TGI (HS 578T breast): 703 nM | GI50 (RXF 393 renal): 685 nM | TGI (RXF 393 renal): 2510 nM | GI50 (MDA-MB-468 breast): 138 nM | TGI (MDA-MB-468 breast): 350 nM | GI50 (SF-268 CNS): 134 nM | TGI (SF-268 CNS): 1350 nM | GI50 (IGROV1 ovarian): 1350 nM | TGI (IGROV1 ovarian): 10000 nM | GI50 (BT-549 breast): 75.8 nM | TGI (BT-549 breast): 537 nM | GI50 (CAKI-1 renal): 224 nM | TGI (CAKI-1 renal): 4460 nM | GI50 (EKVX NSCLC): 3010 nM | TGI (EKVX NSCLC): 28700 nM | GI50 (KM12 colon): 113 nM | TGI (KM12 colon): 1350 nM | GI50 (M14 melanoma): 160 nM | TGI (M14 melanoma): 1150 nM | GI50 (NCI-H226 lung): 311 nM | TGI (NCI-H226 lung): 8810 nM | GI50 (SK-OV-3 ovarian): 326 nM | TGI (SK-OV-3 ovarian): 2670 nM
